According to patent US12552798B2, “Substituted imidazolecarboxamide as Bruton's tyrosine kinase inhibitors” (Henan Zhiwei Biomedicine Co., Ltd., priority 2019, dated 2026):
pIC50: −log10 of the molar value. Read-outs that look alike come from different tables or passages of the source.

Legend:
ITK = ITK (Homo sapiens (Human), UniProt Q08881); assay: ITK kinase inhibitory assay (ELISA); format: biochemical; details: for pIC50: ELISA, 3 μmol/L ATP; for Selectivity Ratio (BTK and ITK): ITK IC50 relative to BTK IC50
Protocol: (§1) BTK, EGFR, BMX, or ITK Inhibitory Assay Procedure for BTK, BMX, EGFR and ITK Inhibitory Assay:
(§2) Kinase inhibitory activities of compounds were evaluated using the Enzyme-linked immunosorbent assay (ELISA). The kinase enzyme of BTK, BMX, EGFR and ITK were purchased from Carna Bioscience (Kobe, Japan). A total of 10 ng/mL antiphosphotyrosine (PY713) antibody (abcam, Cambridge Science Park, UK) was precoated in 96-well ELISA plates. The kinase enzymes in each reaction well were set to BTK (101.25 ng/mL), BMX (90 ng/mL), EGFR (90 ng/mL) or ITK (120 ng/mL) and incubated with indicated compounds in 1× reaction buffer (50 mmol/L HEPES pH 7.4, 20 mmol/L MgCl2, 0.1 mmol/L MnCl2, 1 mmol/L DTT) containing 20 μmol/L (the final concentration of substrate in ITK reaction was 30 μmol/L) substrate (NH2-ETVYSEVRK-biotin) at 25° C. for 1 h. Then, a total of 3 μmol/L ATP was added and the reaction was continued for 2 hrs. The products of reaction were transferred into 96-well ELISA plates containing antibody and incubated at 25° C. for 30 min. After incubation, the wells were washed with PBS and then incubated with horseradish peroxidase […]-conjugated streptavidin. The wells were visualized using 3,3′,5,5′-tetramethylbenzidine (TMB), and chromogenic reaction was ended with 2 mol/L H2SO4, the absorbance was read with a multimode plate reader (PerkinElmer, USA) at 450 nm. IC50 values and curve fits were obtained using Prism (GraphPad Software).

TMD8 = assay: Cell antiproliferative activity assay (CellTiter-Glo), TMD8; format: cell-based; details: read-out: Cell Growth IC50 (nM) TMD8
Protocol: (§3) Cell Antiproliferative Activity Assay
(§4) Cell antiproliferative activity was evaluated by the CellTiter-Glo (Promega, USA) assay. Make 1000× compounds solution in DMSO, add 1 μl 1000× compounds to […] growth medium to make 20× compounds. Dilute cell suspensions in growth medium to desired density and 95 μl were taken to 96-well plate. Add 5 μl 20× compounds into 96-well plate according to the plate map. Final DMSO concentration in each well was 0.1%. Then the cell was incubated at 37° C., 5% CO2 for 72 hs. Equilibrate the assay plate to room temperature before measurement. Add 20 μl of CellTiter-Glo© Reagent into each well. Mix contents for 2 minutes on an orbital shaker to induce cell lysis. Incubate at room temperature for 10 minutes to stabilize luminescent signal. Record luminescence using EnVision Multilabel Reader (PerkinElmer). Cell viability (CV %) was calculated relative to vehicle (DMSO) treated control wells using following formula: Cell viability (%)=(RLU compound−RLU blank)/(RLU control−RLU blank)*100%. The IC50 values were calculated using GraphPad Prism 6.0 software, fitting to a 4-parameter equation to generate concentration response curves. All assays were conducted with three parallel samples and three repetitions.

BTK = BTK (Homo sapiens (Human), UniProt Q06187); assay: BTK kinase inhibitory assay (ELISA); format: biochemical; details: 3 μmol/L ATP
Protocol: as §1, §2

BMX = BMX (Homo sapiens (Human), UniProt P51813); assay: BMX kinase inhibitory assay (ELISA); format: biochemical; details: for Selectivity Ratio (BTK and BMX): BMX IC50 relative to BTK IC50; for pIC50: ELISA, 3 μmol/L ATP
Protocol: as §1, §2

293T = assay: Cell antiproliferative activity assay (CellTiter-Glo), 293T; format: cell-based; details: 72 hs, read-out: Cell Growth IC50 (nM) 293T
Protocol: as §3, §4

EGFR = EGFR (Homo sapiens (Human), UniProt P00533); assay: EGFR kinase inhibitory assay (ELISA); format: biochemical; details: for Selectivity Ratio (BTK and EGFR): EGFR IC50 relative to BTK IC50; for pIC50: ELISA, 3 μmol/L ATP
Protocol: as §1, §2

[1] = PK properties assay in SD rats; format: in vivo; details: rat, plasma
Protocol: Six SD rats were divided into two groups, and compound was administered by gavage and tail vein injection. The intravenous injection group was administered 2 min, 5 min, 15 min, 30 min, 1 h, 2 h, 4 h, 6 h, 8 h, and 12 h after administration. 0.25 mL of blood samples were collected from the posterior orbital venous plexus at 5 min, 15 min, 30 min, 1 h, 2 h, 4 h, 6 h, 8 h, 12 h, and 24 h after administration. LC-MS/MS method was used to determine the concentration of compound in plasma samples from SD rats, and the pharmacokinetic parameters were calculated using WinNolin software.

Ramos = assay: Cell antiproliferative activity assay (CellTiter-Glo), Ramos; format: cell-based; details: 72 hs, read-out: Cell Growth IC50 (nM) Ramos
Protocol: as §3, §4

MOLM-13 = assay: Cell antiproliferative activity assay (CellTiter-Glo), MOLM-13; format: cell-based; details: Homo sapiens; MOLM-13, 72 hs; read-out: Cell Growth IC50 (nM) MOLM-13
Protocol: as §3, §4

Chain of EGFR (P00533 25-1210): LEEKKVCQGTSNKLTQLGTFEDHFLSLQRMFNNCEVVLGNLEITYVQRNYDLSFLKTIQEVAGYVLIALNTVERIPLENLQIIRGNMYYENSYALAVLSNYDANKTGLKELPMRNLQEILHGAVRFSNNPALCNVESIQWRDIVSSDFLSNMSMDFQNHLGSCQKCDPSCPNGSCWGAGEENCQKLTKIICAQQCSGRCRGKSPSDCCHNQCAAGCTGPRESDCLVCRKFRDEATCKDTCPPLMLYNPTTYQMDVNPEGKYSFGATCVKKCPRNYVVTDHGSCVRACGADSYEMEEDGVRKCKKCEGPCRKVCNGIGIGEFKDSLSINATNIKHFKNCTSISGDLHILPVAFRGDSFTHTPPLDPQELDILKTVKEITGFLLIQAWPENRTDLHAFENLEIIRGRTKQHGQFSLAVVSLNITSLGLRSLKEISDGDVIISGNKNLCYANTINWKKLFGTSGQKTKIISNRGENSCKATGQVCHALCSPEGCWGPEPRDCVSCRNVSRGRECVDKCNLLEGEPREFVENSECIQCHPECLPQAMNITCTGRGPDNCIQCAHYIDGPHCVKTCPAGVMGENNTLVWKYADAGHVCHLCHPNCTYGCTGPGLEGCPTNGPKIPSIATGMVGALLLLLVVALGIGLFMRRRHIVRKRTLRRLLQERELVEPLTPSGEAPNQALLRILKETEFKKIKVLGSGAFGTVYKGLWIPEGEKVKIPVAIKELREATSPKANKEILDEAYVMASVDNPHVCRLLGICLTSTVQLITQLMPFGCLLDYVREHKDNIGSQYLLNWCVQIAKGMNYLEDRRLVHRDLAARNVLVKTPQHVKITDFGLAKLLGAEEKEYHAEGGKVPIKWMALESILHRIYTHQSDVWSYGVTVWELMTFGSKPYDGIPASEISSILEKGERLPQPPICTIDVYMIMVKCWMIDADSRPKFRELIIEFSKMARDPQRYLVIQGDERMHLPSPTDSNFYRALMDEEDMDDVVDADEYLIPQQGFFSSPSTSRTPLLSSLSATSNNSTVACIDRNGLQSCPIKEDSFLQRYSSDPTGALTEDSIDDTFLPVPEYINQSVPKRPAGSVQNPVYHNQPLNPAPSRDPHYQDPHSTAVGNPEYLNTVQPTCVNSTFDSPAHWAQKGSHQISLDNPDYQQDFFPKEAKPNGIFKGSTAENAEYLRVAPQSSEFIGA
Chain of BTK (Q06187 whole entry): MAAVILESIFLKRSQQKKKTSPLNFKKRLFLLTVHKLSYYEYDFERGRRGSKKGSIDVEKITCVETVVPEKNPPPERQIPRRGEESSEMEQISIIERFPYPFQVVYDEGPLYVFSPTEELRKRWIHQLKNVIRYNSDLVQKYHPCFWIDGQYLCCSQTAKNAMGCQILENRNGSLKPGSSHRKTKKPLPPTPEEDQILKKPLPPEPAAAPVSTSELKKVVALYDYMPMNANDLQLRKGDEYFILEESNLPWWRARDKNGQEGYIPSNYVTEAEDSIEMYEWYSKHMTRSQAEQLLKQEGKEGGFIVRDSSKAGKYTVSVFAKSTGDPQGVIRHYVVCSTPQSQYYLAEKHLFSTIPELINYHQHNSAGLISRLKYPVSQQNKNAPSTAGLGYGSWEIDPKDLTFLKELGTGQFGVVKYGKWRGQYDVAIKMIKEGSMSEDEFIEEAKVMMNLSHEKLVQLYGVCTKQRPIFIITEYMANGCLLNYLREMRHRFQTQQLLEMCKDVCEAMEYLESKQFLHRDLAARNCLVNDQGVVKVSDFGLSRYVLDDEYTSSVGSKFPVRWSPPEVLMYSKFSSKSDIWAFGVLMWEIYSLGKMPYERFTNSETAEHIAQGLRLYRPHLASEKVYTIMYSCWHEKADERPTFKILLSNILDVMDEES
Chain of BMX (P51813 whole entry): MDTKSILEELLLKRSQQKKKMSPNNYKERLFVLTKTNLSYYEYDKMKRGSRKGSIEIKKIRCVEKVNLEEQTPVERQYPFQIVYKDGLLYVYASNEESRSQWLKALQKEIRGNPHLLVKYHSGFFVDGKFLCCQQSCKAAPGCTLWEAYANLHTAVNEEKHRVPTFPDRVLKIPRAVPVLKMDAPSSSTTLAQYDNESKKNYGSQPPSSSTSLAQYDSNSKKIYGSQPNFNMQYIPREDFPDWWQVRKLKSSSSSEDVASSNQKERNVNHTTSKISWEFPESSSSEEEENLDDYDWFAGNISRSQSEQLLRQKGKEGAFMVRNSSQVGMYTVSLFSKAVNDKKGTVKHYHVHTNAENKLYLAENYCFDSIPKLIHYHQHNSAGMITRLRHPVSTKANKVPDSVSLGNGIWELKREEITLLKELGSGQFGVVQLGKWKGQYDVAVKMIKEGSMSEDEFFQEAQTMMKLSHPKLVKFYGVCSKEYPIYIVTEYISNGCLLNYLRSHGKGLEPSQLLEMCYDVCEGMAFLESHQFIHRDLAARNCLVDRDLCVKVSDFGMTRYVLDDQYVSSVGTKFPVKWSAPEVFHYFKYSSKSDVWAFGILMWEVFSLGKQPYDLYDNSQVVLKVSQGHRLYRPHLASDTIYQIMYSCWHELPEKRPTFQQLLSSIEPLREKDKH
Chain of ITK (Q08881 whole entry): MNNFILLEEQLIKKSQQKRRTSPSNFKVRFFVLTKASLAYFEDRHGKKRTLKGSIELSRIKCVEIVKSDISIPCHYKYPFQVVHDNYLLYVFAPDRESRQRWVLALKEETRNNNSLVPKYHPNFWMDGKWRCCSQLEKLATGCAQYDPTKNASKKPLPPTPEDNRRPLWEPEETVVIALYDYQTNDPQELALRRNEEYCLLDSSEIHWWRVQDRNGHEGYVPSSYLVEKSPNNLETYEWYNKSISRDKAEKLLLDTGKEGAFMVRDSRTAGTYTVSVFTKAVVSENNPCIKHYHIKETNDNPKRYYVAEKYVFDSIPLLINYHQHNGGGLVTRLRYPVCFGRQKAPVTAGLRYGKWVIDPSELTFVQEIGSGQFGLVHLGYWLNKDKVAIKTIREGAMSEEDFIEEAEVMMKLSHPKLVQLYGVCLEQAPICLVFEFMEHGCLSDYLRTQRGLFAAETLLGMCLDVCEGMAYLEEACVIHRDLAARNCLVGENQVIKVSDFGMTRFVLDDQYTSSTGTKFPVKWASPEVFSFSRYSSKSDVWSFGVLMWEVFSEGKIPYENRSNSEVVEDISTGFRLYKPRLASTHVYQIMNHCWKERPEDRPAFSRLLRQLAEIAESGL

SMILES	pIC50 (ITK)	Selectivity Ratio (BTK and ITK) (ITK)	pIC50 (BTK)	Selectivity Ratio (BTK and BMX) (BMX)	pIC50 (BMX)	Selectivity Ratio (BTK and EGFR) (EGFR)	pIC50 (EGFR)	Vd ([1]; iv 5 mg/kg) [L/kg]	clearance ([1]; iv 5 mg/kg) [L/h/kg]	half-life ([1]; iv 5 mg/kg) [min]	AUC ([1]; po 5 mg/kg) [µg·h/mL]	Cmax ([1]; po 5 mg/kg) [µg/mL]	bioavailability ([1]; po 5 mg/kg) [%]	half-life ([1]; po 5 mg/kg) [min]	IC50 (Ramos) [nM]	IC50 (MOLM-13) [nM]	IC50 (Ramos; Homo sapiens) [nM]	IC50 (TMD8; TMD8, 72 hs) [nM]	IC50 (293T; Homo sapiens, HEK-293T) [nM]	also measured
NC(=O)c1c(-c2ccc(Oc3ccccc3)cc2)nc2n1NCCC2C1CCN(C(=O)/C=C/C(F)(F)F)CC1 (single isomer, unassigned) [10a (peak 1)]	5.69	301.5	8.17	3.12	7.68	365.37	5.61	1.6	3.59	18.6	1.39	0.703	47.2	87	1270	3150	–	16.5	1010	–
NC(=O)c1c(-c2ccc(Oc3ccccc3)cc2)nc2n1NCCC2C1CCN(C(=O)/C=C/C(F)(F)F)CC1 (single isomer, unassigned) [10b (peak 2)]	< 4.52	>485.4	7.21	2.32	6.84	638.75	4.40	–	–	–	–	–	–	–	6440	–	–	257	–	IC50 (293T): 1910 nM
NC(=O)c1c(-c2ccc(Oc3ccccc3)cc2)nc2n1NCCC2C1CCN(C(=O)/C=C/C(F)(F)F)CC1 (centres unmarked) [Example 10, 2-(4-Phenoxy-phenyl)-8-[1-(4,4,4-trifluoro-but-2-enoyl)-piperidin-4-yl]-5,6,7,8-tetrahydro-imidazo[1,2-b]pyridazine-3-carboxamide]	4.97	1314	8.09	6.04	7.31	235.36	5.71	–	–	–	–	–	–	–	–	–	2760	–	45300	IC50 (TMD8; Homo sapiens, TMD8, TMD8, 72 hs): 51.6 nM

Further lines, with some results ahead:

pIC50 (ITK)	Selectivity Ratio (BTK and ITK) (ITK)	pIC50 (BTK)	Selectivity Ratio (BTK and BMX) (BMX)	pIC50 (BMX)	Selectivity Ratio (BTK and EGFR) (EGFR)	pIC50 (EGFR)	Vd ([1]; iv 5 mg/kg) [L/kg]	clearance ([1]; iv 5 mg/kg) [L/h/kg]	half-life ([1]; iv 5 mg/kg) [min]	AUC ([1]; po 5 mg/kg) [µg·h/mL]	Cmax ([1]; po 5 mg/kg) [µg/mL]	bioavailability ([1]; po 5 mg/kg) [%]	half-life ([1]; po 5 mg/kg) [min]	IC50 (Ramos) [nM]	IC50 (MOLM-13) [nM]	IC50 (Ramos; Homo sapiens) [nM]	SMILES	IC50 (TMD8; TMD8, 72 hs) [nM]	IC50 (293T; Homo sapiens, HEK-293T) [nM]	also measured
6.32	185.6	8.59	5.88	7.82	2.00	8.28	0.959	1.62	24.6	3.43	0.923	52.9	84.6	–	–	–	C=CC(=O)N1CCC(C2CCNn3c2nc(-c2ccc(Oc4ccccc4)cc2)c3C(N)=O)CC1 (single isomer, unassigned) [1a (peak 1)]	5.4	8450	–
6.65	27.40	8.09	2.78	7.64	3.43	7.55	–	–	–	–	–	–	–	–	1100	725	C#CC(=O)N1CCC(C2CCNn3c2nc(-c2ccc(Oc4ccccc4)cc2)c3C(N)=O)CC1 (centres unmarked) [Example 11, 2-(4-phenoxyphenyl)-8-(1-propioloylpiperidin-4-yl)-5,6,7,8-tetrahydroimidazo[1,2-b]pyridazine-3-carboxamide]	–	–	–
–	1080.6	–	8.79	–	405.5	–	–	–	–	–	–	–	–	–	1360	294	NC(=O)c1c(-c2ccc(Oc3ccccc3)cc2)nc2n1NCCC2C1CN(C(=O)/C=C/C(F)(F)F)C1 (centres unmarked) [Example 20, (E)-2-(4-phenoxyphenyl)-8-(1-(4,4,4-trifluorobut-2-enoyl)azetidin-3-yl)-5,6,7,8-tetrahydroimidazo[1,2-b]pyridazine-3-carboxamide]	–	–	–
